Data on 2 molecules can be found in ChEMBL document CHEMBL4196183, “Discovery of New Allosteric Modulators of the Urotensinergic System through Substitution of the Urotensin II-Related Peptide (URP) Phenylalanine Residue” (J Med Chem, 2018).

The target in assay [1] is T1, Urotensin-2 receptor (Rattus norvegicus) (UniProt P49684).
T1 sequence (whole entry): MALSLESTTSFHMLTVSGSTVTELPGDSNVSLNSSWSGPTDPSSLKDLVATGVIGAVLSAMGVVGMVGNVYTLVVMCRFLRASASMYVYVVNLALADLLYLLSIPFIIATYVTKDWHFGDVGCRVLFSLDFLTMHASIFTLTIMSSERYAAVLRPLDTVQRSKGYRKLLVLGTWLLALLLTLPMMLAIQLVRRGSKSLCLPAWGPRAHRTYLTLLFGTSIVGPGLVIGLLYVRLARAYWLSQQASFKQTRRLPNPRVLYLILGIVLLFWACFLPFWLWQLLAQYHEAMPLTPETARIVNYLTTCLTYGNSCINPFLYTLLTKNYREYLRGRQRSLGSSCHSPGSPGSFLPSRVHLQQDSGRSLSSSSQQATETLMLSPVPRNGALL
Nature of the assay: Agonist activity at UT receptor in Sprague-Dawley rat thoracic aortic ring assessed as induction of contraction relative to KCl-induced contraction. The class given is functional.

In assay [2] the target is T2, Urotensin-2 receptor (Rattus norvegicus, UniProt P49684).
T2 sequence (P49684 whole entry): T1 sequence (whole entry)
The assay is described as follows: Agonist activity at UT receptor in Sprague-Dawley rat thoracic aortic ring assessed as induction of contraction. The class given is functional.

Assay [3] addresses T1, Urotensin-2 receptor (Rattus norvegicus). Nature of the assay: Antagonist activity at UT receptor in Sprague-Dawley rat thoracic aortic ring assessed as reduction in URP-induced contraction by measuring Emax for […] at 1 uM pre-incubated for 30 mins […] relative to KCl-induced contraction (reference value: 107 +/- 3%). The format is functional.

For assay [4], the target named is T3, Urotensin-2 receptor (Homo sapiens) (UniProt Q9UKP6).
T3 sequence (whole entry): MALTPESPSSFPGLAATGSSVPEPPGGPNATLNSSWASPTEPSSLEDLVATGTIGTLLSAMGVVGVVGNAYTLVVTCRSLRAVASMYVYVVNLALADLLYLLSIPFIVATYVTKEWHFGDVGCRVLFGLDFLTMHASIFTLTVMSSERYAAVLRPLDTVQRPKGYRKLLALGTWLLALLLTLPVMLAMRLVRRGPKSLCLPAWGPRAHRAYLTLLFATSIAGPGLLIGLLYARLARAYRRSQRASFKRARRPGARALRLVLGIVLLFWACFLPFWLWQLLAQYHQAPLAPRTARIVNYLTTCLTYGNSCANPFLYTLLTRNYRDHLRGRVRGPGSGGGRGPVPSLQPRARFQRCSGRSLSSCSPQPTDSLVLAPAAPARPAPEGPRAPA
The assay is described as follows: Selectivity index, change in deltalog(Tau/KA) for agonist activity at human UT receptor expressed in HEK293 cells co-expressing G12-polycistronic BRET biosensor assessed as induction of G12 activation by luminescence detection based BRET assay to deltalog(Tau/KA) for agonist activity at human UT receptor expressed in HEK293 cells co-expressing Gq-polycistronic BRET biosensor assessed as induction of Gq activation by luminescence detection based BRET assay. The class given is functional, cell-based.

The target in assay [5] is T3, Urotensin-2 receptor (Homo sapiens). Nature of the assay: Selectivity index, change in deltalog(Tau/KA) for agonist activity at human UT receptor expressed in HEK293 cells co-expressing beta-arrestin1-polycistronic BRET biosensor assessed as induction of beta-arrestin1 recruitment by luminescence detection based BRET assay to deltalog(Tau/KA) for agonist activity at human UT receptor expressed in HEK293 cells co-expressing G12-polycistronic BRET biosensor assessed as induction of G12 activation by luminescence detection based BRET assay to. The class given is functional, cell-based. (Bioluminescence resonance energy transfer reports proximity on the nanometre scale.)

Assay [6] deals with T4, Urotensin-2 receptor (Homo sapiens, UniProt Q9UKP6).
T4 sequence (Q9UKP6 whole entry): T3 sequence (whole entry)
Nature of the assay: Agonist activity at human UT receptor expressed in HEK293 cells co-expressing G12-polycistronic BRET biosensor assessed as induction of G12 activation measured for 5 mins by luminescence detection based BRET assay. The class given is functional, cell-based.

Assay [7] has as its target T3, Urotensin-2 receptor (Homo sapiens). The assay is described as follows: Bias factor, ratio of deltalog(Tau/KA) for agonist activity at human UT receptor expressed in HEK293 cells co-expressing beta-arrestin1-polycistronic BRET biosensor assessed as induction of beta-arrestin1 recruitment by luminescence detection based BRET assay to deltalog(Tau/KA) for agonist activity at human UT receptor expressed in HEK293 cells co-expressing G12-polycistronic BRET biosensor assessed as induction of G12 activation by luminescence detection based BRET assay. The format is functional, cell-based.

Assay [8] shares this target. Nature of the assay: Agonist activity at human UT receptor expressed in HEK293 cells co-expressing beta-arrestin1-polycistronic BRET biosensor assessed as induction of beta-arrestin1 recruitment measured for 5 mins by luminescence detection based BRET assay relative to 10 uM URP. The class given is functional, cell-based.
Assay [9] has the same target. The assay is described as follows: Agonist activity at human UT receptor expressed in HEK293 cells co-expressing G12-polycistronic BRET biosensor assessed as induction of G12 activation measured for 5 mins by luminescence detection based BRET assay relative to 10 uM URP. The format is functional, cell-based.
For assay [10], the target named is T4, Urotensin-2 receptor. The assay is described as follows: Agonist activity at human UT receptor expressed in HEK293 cells co-expressing Gq-polycistronic BRET biosensor assessed as induction of Gq activation measured for 5 mins by luminescence detection based BRET assay. The format is functional, cell-based.
The target in assay [11] is T1, Urotensin-2 receptor (Rattus norvegicus). The assay is described as follows: Antagonist activity at UT receptor in Sprague-Dawley rat thoracic aortic ring assessed as reduction in URP-induced contraction by measuring pEC50 for […] at 1 uM pre-incubated for 30 mins […] (reference value: 8.16 +/- 0.08). The class given is functional.

The target is the same in assay [12]. Nature of the assay: Antagonist activity at UT receptor in Sprague-Dawley rat thoracic aortic ring assessed as reduction in urotensin-2-induced contraction by measuring Emax for human urotensin-2-induced contraction at 1 uM pre-incubated for 30 mins before urotensin-2 stimulation relative to KCl-induced contraction (reference value: 101 +/- 4%). The format is functional.

Assay [13] has as its target T3, Urotensin-2 receptor (Homo sapiens). The assay is described as follows: Selectivity index, change in deltalog(Tau/KA) for agonist activity at human UT receptor expressed in HEK293 cells co-expressing Gq-polycistronic BRET biosensor assessed as induction of Gq activation by luminescence detection based BRET assay to deltalog(Tau/KA) for agonist activity at human UT receptor expressed in HEK293 cells co-expressing beta-arrestin1-polycistronic BRET biosensor assessed as induction of beta-arrestin1 recruitment by luminescence detection based BRET assay. The class given is functional, cell-based.

The target of assay [14] is T1, Urotensin-2 receptor (Rattus norvegicus). Nature of the assay: Antagonist activity at UT receptor in Sprague-Dawley rat thoracic aortic ring assessed as reduction in urotensin-2-induced contraction by measuring pEC50 for human urotensin-2-induced contraction at 1 uM pre-incubated for 30 mins before urotensin-2 stimulation (reference value: 8.59 +/- 0.12). The format is functional.

The target in assay [15] is T3, Urotensin-2 receptor (Homo sapiens). The assay is described as follows: Bias factor, ratio of deltalog(Tau/KA) for agonist activity at human UT receptor expressed in HEK293 cells co-expressing Gq-polycistronic BRET biosensor assessed as induction of Gq activation by luminescence detection based BRET assay to deltalog(Tau/KA) for agonist activity at human UT receptor expressed in HEK293 cells co-expressing G12-polycistronic BRET biosensor assessed as induction of G12 activation by luminescence detection based BRET assay. The class given is functional, cell-based.

The target of assay [16] is T4, Urotensin-2 receptor. Nature of the assay: Agonist activity at human UT receptor expressed in HEK293 cells co-expressing beta-arrestin1-polycistronic BRET biosensor assessed as induction of beta-arrestin1 recruitment measured for 5 mins by luminescence detection based BRET assay. The class given is functional, cell-based.
Assay [17] addresses T3, Urotensin-2 receptor (Homo sapiens). Nature of the assay: Agonist activity at human UT receptor expressed in HEK293 cells co-expressing Gq-polycistronic BRET biosensor assessed as induction of Gq activation measured for 5 mins by luminescence detection based BRET assay relative to 10 uM URP. The format is functional, cell-based.

The source made the active and inactive calls. No cut-off for these calls is given here.

As usually defined, the Emax is the greatest response seen or fitted, relative to the assay's reference. The EC50 is the concentration that produces a half-maximal response. Consider `CC(C)[C@H](NC(=O)[C@@H]1CSSC[C@H](NC(=O)[C@H](C)N)C(=O)N[C@@H](Cc2ccc(-c3ccccc3)cc2)C(=O)N[C@@H](Cc2c[nH]c3ccccc23)C(=O)N[C@@H](CCCCN)C(=O)N[C@@H](Cc2ccc(O)cc2)C(=O)N1)C(=O)O`, for which the Emax is 25% in assay [1]; 31% in [3]; 76% in assay [8]; 80% in [9]; 23% in [12]; 91% in assay [17]. The EC50 is 0.0288 µM on Urotensin-2 receptor [2], 0.12 µM on Urotensin-2 receptor [6], 0.0151 µM on Urotensin-2 receptor [10] and 0.603 µM at Urotensin-2 receptor [16]. For the same molecule, in assay [4], the deltalog(Tau/KA) came out at 0.15. Further, in [5], the deltadeltalog(Tau/KA) (beta-arrestin1 selectivity index) is -0.6. The fold change (FC) in [7] was 0.3; in assay [15], 0.7. The pEC50 result in [11] and in [14] was “Active” each time. Further, the selectivity index, deltadeltalog(Tau/KA) in assay [13] came to 0.45.

As for `CC(C)[C@H](NC(=O)[C@@H]1CSSC[C@H](NC(=O)[C@H](C)N)C(=O)N[C@@H](Cc2ccc(C#Cc3ccccc3)cc2)C(=O)N[C@@H](Cc2c[nH]c3ccccc23)C(=O)N[C@@H](CCCCN)C(=O)N[C@@H](Cc2ccc(O)cc2)C(=O)N1)C(=O)O`, the maximal response (Emax) in assay [1] came to 28%; in assay [3], 25%; in [8], 94%; in assay [9] it was 78%; in assay [12], 15%; in [17], 102%. Also, the concentration for a half-maximal effect (EC50) was 0.0324 µM on Urotensin-2 receptor [2], 0.148 µM at Urotensin-2 receptor [6], 0.0275 µM on Urotensin-2 receptor [10] and 0.759 µM at Urotensin-2 receptor [16]. In addition, the deltalog(Tau/KA) in assay [4] is 0.24. Besides, the deltadeltalog(Tau/KA) (beta-arrestin1 selectivity index) in assay [5] was -0.22. Also, the fold change (FC) in assay [7] and in [15] was 0.6 each time. Moreover, the pEC50 result in [11] and in [14] was “Active” throughout. Also, the selectivity index, deltadeltalog(Tau/KA) in assay [13] was -0.03.
